Source: ChEMBL document CHEMBL1201862, “PubChem BioAssay data set” (2004)
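The compound was tested at five concentrations on cells cultured in 96-well plates, with a 48-hour exposure period. Here, GI50 denotes the concentration required for 50% inhibition of growth.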 Active and inactive are the calls of the source. Cut-off read from the data, not from the text of the source: active = GI50 up to about 1.1 µM and inactive = higher.

Columns and labels:
Assay in all cases: NCI anticancer screen, dose series, 48 h
MDA-MB-435 = test system: MDA-MB-435
HCC 2998 = test system: HCC 2998
HCT-116 = test system: HCT-116
HCT-15 = test system: HCT-15
SW-620 = test system: SW-620
NCI-H522 = test system: NCI-H522
UACC-62 = test system: UACC-62
NCI-H226 = test system: NCI-H226
SF-268 = test system: SF-268
786-0 = test system: 786-0
HOP-92 = test system: HOP-92
SR = test system: SR
LOX IMVI = test system: LOX IMVI
DU-145 = test system: DU-145
OVCAR-4 = test system: OVCAR-4
OVCAR-8 = test system: OVCAR-8
SK-MEL-2 = test system: SK-MEL-2
COLO 205 = test system: COLO 205
SK-MEL-5 = test system: SK-MEL-5
ACHN = test system: ACHN
MOLT-4 = test system: MOLT-4
RXF 393 = test system: RXF 393
A549 = test system: A549
K562 = test system: K562
NCI-H460 = test system: NCI-H460
A498 = test system: A498
SF-539 = test system: SF-539
PC-3 = test system: PC-3
SNB-75 = test system: SNB-75
UACC-257 = test system: UACC-257
SNB-19 = test system: SNB-19
OVCAR-5 = test system: OVCAR-5
EKVX = test system: EKVX
M14 = test system: M14
Hs-578T = test system: Hs-578T
BT-549 = test system: BT-549
NCI-H23 = test system: NCI-H23
Malme-3M = test system: Malme-3M
UO-31 = test system: UO-31
MDA-N = test system: MDA-N
KM12 = test system: KM12
MCF7 = test system: MCF7
IGROV-1 = test system: IGROV-1
U-251 = test system: U-251
RPMI-8226 = test system: RPMI-8226
T47D = test system: T47D
NCI/ADR-RES = test system: NCI/ADR-RES
OVCAR-3 = test system: OVCAR-3
SN12C = test system: SN12C
HT-29 = test system: HT-29
CCRF-CEM = test system: CCRF-CEM
MDA-MB-231 = test system: MDA-MB-231
CAKI-1 = test system: CAKI-1
HOP-62 = test system: HOP-62
HL-60 = test system: HL-60
TK-10 = test system: TK-10
SF-295 = test system: SF-295
SK-MEL-28 = test system: SK-MEL-28
SK-OV-3 = test system: SK-OV-3

Structure (SMILES): Cc1cc(C)c2c(=O)n(CC(O)CN3CCN(c4ncccn4)CC3)sc2n1 (centres undefined)
- GI50 (MDA-MB-435): 16.6 µM (inactive)
- GI50 (HCC 2998): 18.9 µM (inactive)
- GI50 (HCT-116): 15.6 µM (inactive)
- GI50 (HCT-15): 18.8 µM
- GI50 (SW-620): 19.5 µM (inactive)
- GI50 (NCI-H522): 13 µM (inactive)
- GI50 (UACC-62): 17.8 µM (inactive)
- GI50 (NCI-H226): 96.8 µM (inactive)
- GI50 (SF-268): 18.6 µM (inactive)
- GI50 (786-0): 14.5 µM (inactive)
- GI50 (HOP-92): 29 µM (inactive)
- GI50 (SR): 4.79 µM (inactive)
- GI50 (LOX IMVI): 17.1 µM (inactive)
- GI50 (DU-145): 16.6 µM (inactive)
- GI50 (OVCAR-4): 18.6 µM (inactive)
- GI50 (OVCAR-8): 19.2 µM (inactive)
- GI50 (SK-MEL-2): 18.7 µM (inactive)
- GI50 (COLO 205): 19 µM (inactive)
- GI50 (SK-MEL-5): 20.5 µM (inactive)
- GI50 (ACHN): 18.4 µM (inactive)
- GI50 (MOLT-4): 4 µM (inactive)
- GI50 (RXF 393): 17.5 µM (inactive)
- GI50 (A549): 17.5 µM (inactive)
- GI50 (K562): 22.3 µM (inactive)
- GI50 (NCI-H460): 17.5 µM (inactive)
- GI50 (A498): 17.4 µM (inactive)
- GI50 (SF-539): 17.8 µM (inactive)
- GI50 (PC-3): 18.7 µM (inactive)
- GI50 (SNB-75): 15.1 µM (inactive)
- GI50 (UACC-257): 16.7 µM (inactive)
- GI50 (SNB-19): 64.3 µM (inactive)
- GI50 (OVCAR-5): 16.5 µM (inactive)
- GI50 (EKVX): 16 µM (inactive)
- GI50 (M14): 15.7 µM (inactive)
- GI50 (Hs-578T): 21.4 µM (inactive)
- GI50 (BT-549): 18.4 µM (inactive)
- GI50 (NCI-H23): 17.7 µM (inactive)
- GI50 (Malme-3M): 20.1 µM (inactive)
- GI50 (UO-31): 16.4 µM (inactive)
- GI50 (MDA-N): 16 µM (inactive)
- GI50 (KM12): 20.8 µM (inactive)
- GI50 (MCF7): 17.9 µM (inactive)
- GI50 (IGROV-1): 29.4 µM (inactive)
- GI50 (U-251): 17.8 µM (inactive)
- GI50 (RPMI-8226): 4.71 µM (inactive)
- GI50 (T47D): 23.4 µM (inactive)
- GI50 (NCI/ADR-RES): 31 µM (inactive)
- GI50 (OVCAR-3): 19.4 µM (inactive)
- GI50 (SN12C): 17.8 µM (inactive)
- GI50 (HT-29): 16.1 µM (inactive)
- GI50 (CCRF-CEM): 5.79 µM (inactive)
- GI50 (MDA-MB-231): 17.5 µM (inactive)
- GI50 (CAKI-1): 20 µM (inactive)
- GI50 (HOP-62): 20.3 µM (inactive)
- GI50 (HL-60): 16.6 µM (inactive)
- GI50 (TK-10): 18.2 µM (inactive)
- GI50 (SF-295): > 100 µM (inactive)
- GI50 (SK-MEL-28): 17 µM (inactive)
- GI50 (SK-OV-3): 18.7 µM (inactive)
